Data on five compounds can be found in the NIST ThermoML archive (doi:10.1016/j.fluid.2007.05.013).

A word on the mass density: it is the mass of a sample divided by its volume. Usually vapor or sublimation pressure stands for the equilibrium pressure above the liquid or solid.

Numbers after ± are expanded uncertainties.

The conditions of this data set: Liquid; for mass density: 298.15 K, 101.33 kPa.

In the case of `C1COCO1` [1,3-dioxolane], the mass density came out at 1059 ± 0.9 kg/m3. In addition, the “vapor or sublimation pressure” value (348.8 K) is recorded as 101.33 ± 2 kPa.
In the case of `C1COCCO1` [1,4-dioxane], the mass density came out at 1027.9 ± 0.7 kg/m3. The “vapor or sublimation pressure” value (374.47 K) amounted to 101.33 ± 2 kPa.
As to `CCCCCCCl` [1-chlorohexane], the mass density is given as 873.5 ± 1 kg/m3. Moreover, the “vapor or sublimation pressure” value (408.07 K) was found to be 101.33 ± 2 kPa.
Take `C1CCOC1` [tetrahydrofuran]: the mass density is reported as 882 ± 0.5 kg/m3. Also, where the note is “339.12 K”, the “vapor or sublimation pressure” value amounted to 101.33 ± 2 kPa.
Take `C1CCOCC1` [tetrahydropyran]: the mass density was 878.8 ± 1 kg/m3. Besides, the “vapor or sublimation pressure” value (361.23 K) is reported as 101.33 ± 2 kPa.
